Measured values taken from patent publication US20220281848A1, “PYRAZOLE-SUBSTITUTED PYRROLIDINONES AS HERBICIDES” (FMC Corporation, priority 2019, published 2022).

Columns and labels:
Type in all cases: in vivo
plants = experiment: Test D post-emergence, other plants of Tables D2 and D4; conditions: post-emergence
How it was run: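 Damage was rated visually from 0 (none) to 100 (total), at 20 DAA for pre-emergence and 15 d for post-emergence. Plants grew from safener-treated seed in a glasshouse at 24/18° C. or 20/16° C. day/night, 65% humidity, watered twice daily.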

maize = experiment: Test D pre-emergence, maize seed treated with a herbicide safener; conditions: ZEAMX, preemergent, 20 DAA
How it was run: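 Seeds treated with herbicide safener; sown in soil; glasshouse, 16 h light, 65% humidity. Sprayed day 1 (pre) or ~day 12 (post). Spray in 0.2% v/v adjuvant. Scored 0–100 damage: 20 DAA pre, 15 d post.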

[1] = tested on: barnyardgrass (Echinochloa crus-galli, ECHCG); experiment: Test A pre-emergence, barnyardgrass; conditions: after 13 d
How it was run: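 Seeds sown in pots of standard soil and sprayed one day later, pre-emergence, at 15.625, 62.5 or 250 g/ha in acetone/water (50:50) with 0.5% Tween 20. Grown in glasshouse at 24/16 °C, 14 h light, 65% humidity. Damage scored after 13 d (0 none, 100 total).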

corn (Zea mays, ZEAMX) = experiment: Test A post-emergence, corn; conditions: after 13 d
How it was run: (§1)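 Visual damage at 13 d after treatment, rated from 0 (no damage) to 100 (total damage). Eight-day-old pot-grown plants had been sprayed with 15.625, 62.5 or 250 g/ha of compound in aqueous acetone (50:50) containing 0.5% Tween 20.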

[2] = tested on: barnyardgrass (Echinochloa crus-galli, ECHCG); experiment: Test A post-emergence, barnyardgrass; conditions: after 13 d
How it was run: as §1

In the case of CN1CC(c2cc(C(F)(F)F)n(C)n2)C(C(=O)Nc2cccc(F)c2F)C1=O (racemic) [Compound 3], the “damage to plant (100=total damage to plant; 0=no damage to plant), BRAPL” value (plants; rate 130, evaluated after 15 d) is reported as 40, the “damage to plant (100=total damage to plant; 0=no damage to plant), BRAPL” value (plants; rate 250, evaluated after 15 d) is reported as 60 and the “damage to plant (100=total damage to plant; 0=no damage to plant), BRAPL” value (plants; rate 500, evaluated after 15 d) is reported as 70. The “damage to plant (100=total damage to plant; 0=no damage to plant), CYPES” value (plants; rate 130, evaluated after 15 d) was 0, the “damage to plant (100=total damage to plant; 0=no damage to plant), CYPES” value (plants; rate 250, evaluated after 15 d) was 0 and the “damage to plant (100=total damage to plant; 0=no damage to plant), CYPES” value (plants; rate 500, evaluated after 15 d) was 10. For the same molecule, the “damage to plant (100=total damage to plant; 0=no damage to plant), DIGSA” value (plants; rate 130, evaluated after 15 d) was 0, the “damage to plant (100=total damage to plant; 0=no damage to plant), DIGSA” value (plants; rate 250, evaluated after 15 d) was 10 and the “damage to plant (100=total damage to plant; 0=no damage to plant), DIGSA” value (plants; rate 500, evaluated after 15 d) was 60. For the same molecule, the “damage to plant (100=total damage to plant; 0=no damage to plant), ECHCG” value (plants; rate 130, evaluated after 15 d) was 40, the “damage to plant (100=total damage to plant; 0=no damage to plant), ECHCG” value (plants; rate 250, evaluated after 15 d) was 60 and the “damage to plant (100=total damage to plant; 0=no damage to plant), ECHCG” value (plants; rate 500, evaluated after 15 d) was 80. For the same molecule, the “damage to plant (100=total damage to plant; 0=no damage to plant), ELEIN” value (plants; rate 130, evaluated after 15 d) was 0, the “damage to plant (100=total damage to plant; 0=no damage to plant), ELEIN” value (plants; rate 250, evaluated after 15 d) was 0 and the “damage to plant (100=total damage to plant; 0=no damage to plant), ELEIN” value (plants; rate 500, evaluated after 15 d) was 0. For the same molecule, the “damage to plant (100=total damage to plant; 0=no damage to plant), EPHHL” value (plants; rate 130, evaluated after 15 d) was 0, the “damage to plant (100=total damage to plant; 0=no damage to plant), EPHHL” value (plants; rate 250, evaluated after 15 d) was 0 and the “damage to plant (100=total damage to plant; 0=no damage to plant), EPHHL” value (plants; rate 500, evaluated after 15 d) was 0. The “damage to plant (100=total damage to plant; 0=no damage to plant), GLXMA” value (plants; rate 130, evaluated after 15 d) was 10, the “damage to plant (100=total damage to plant; 0=no damage to plant), GLXMA” value (plants; rate 250, evaluated after 15 d) was 10 and the “damage to plant (100=total damage to plant; 0=no damage to plant), GLXMA” value (plants; rate 500, evaluated after 15 d) was 20. The “damage to plant (100=total damage to plant; 0=no damage to plant), IPOHE” value (plants; rate 130, evaluated after 15 d) was 0, the “damage to plant (100=total damage to plant; 0=no damage to plant), IPOHE” value (plants; rate 250, evaluated after 15 d) was 0 and the “damage to plant (100=total damage to plant; 0=no damage to plant), IPOHE” value (plants; rate 500, evaluated after 15 d) was 0. The “damage to plant (100=total damage to plant; 0=no damage to plant), ORYSA” value (plants; rate 130, evaluated after 15 d) was 0, the “damage to plant (100=total damage to plant; 0=no damage to plant), ORYSA” value (plants; rate 250, evaluated after 15 d) was 0 and the “damage to plant (100=total damage to plant; 0=no damage to plant), ORYSA” value (plants; rate 500, evaluated after 15 d) was 20. The “damage to plant (100=total damage to plant; 0=no damage to plant), PANMI” value (plants; rate 130, evaluated after 15 d) was 0, the “damage to plant (100=total damage to plant; 0=no damage to plant), PANMI” value (plants; rate 250, evaluated after 15 d) was 0 and the “damage to plant (100=total damage to plant; 0=no damage to plant), PANMI” value (plants; rate 500, evaluated after 15 d) was 0. The “damage to plant (100=total damage to plant; 0=no damage to plant), SETFA” value (plants; rate 130, evaluated after 15 d) was 0, the “damage to plant (100=total damage to plant; 0=no damage to plant), SETFA” value (plants; rate 250, evaluated after 15 d) was 0 and the “damage to plant (100=total damage to plant; 0=no damage to plant), SETFA” value (plants; rate 500, evaluated after 15 d) was 60. The “damage to plant (100=total damage to plant; 0=no damage to plant), SIDSP” value (plants; rate 130, evaluated after 15 d) was 0, the “damage to plant (100=total damage to plant; 0=no damage to plant), SIDSP” value (plants; rate 250, evaluated after 15 d) was 0 and the “damage to plant (100=total damage to plant; 0=no damage to plant), SIDSP” value (plants; rate 500, evaluated after 15 d) was 0. The “damage to plant (100=total damage to plant; 0=no damage to plant), SORVU” value (plants; rate 130, evaluated after 15 d) was 0, the “damage to plant (100=total damage to plant; 0=no damage to plant), SORVU” value (plants; rate 250, evaluated after 15 d) was 0 and the “damage to plant (100=total damage to plant; 0=no damage to plant), SORVU” value (plants; rate 500, evaluated after 15 d) was 0. For the same molecule, the “damage to plant (100=total damage to plant; 0=no damage to plant), ZEAMX” value (maize; rate 15) was 0, the “damage to plant (100=total damage to plant; 0=no damage to plant), ZEAMX” value (maize; rate 30) was 0 and the “damage to plant (100=total damage to plant; 0=no damage to plant), ZEAMX” value (maize; rate 60) was 0. The “damage to plant (100=total damage to plant; 0=no damage to plant), ZEAMX” value (maize; rate 130) was 0, the “damage to plant (100=total damage to plant; 0=no damage to plant), ZEAMX” value (maize; rate 250) was 0 and the “damage to plant (100=total damage to plant; 0=no damage to plant), ZEAMX” value (maize; rate 500) was 0. For the same molecule, the “damage to plant (100=total damage; 0=no damage) ECHCG” value ([1]; Pre-Emergence at 15.625 g/ha) was 100, the “damage to plant (100=total damage; 0=no damage) ECHCG” value ([1]; Pre-Emergence at 62.5 g/ha) was 100 and the “damage to plant (100=total damage; 0=no damage) ECHCG” value ([1]; Pre-Emergence at 250 g/ha) was 100. The “damage to plant (100=total damage; 0=no damage) ZEAMX” value (corn (Zea mays, ZEAMX); Post-Emergence at 15.625 g/ha) was 0, the “damage to plant (100=total damage; 0=no damage) ZEAMX” value (corn (Zea mays, ZEAMX); Post-Emergence at 62.5 g/ha) was 50 and the “damage to plant (100=total damage; 0=no damage) ZEAMX” value (corn (Zea mays, ZEAMX); Post-Emergence at 250 g/ha) was 80. For the same molecule, the “damage to plant (100=total damage; 0=no damage) ECHCG” value ([2]; Post-Emergence at 15.625 g/ha) was 90, the “damage to plant (100=total damage; 0=no damage) ECHCG” value ([2]; Post-Emergence at 62.5 g/ha) was 90 and the “damage to plant (100=total damage; 0=no damage) ECHCG” value ([2]; Post-Emergence at 250 g/ha) was 90.
